Measured values from patent US20050101623A1 (Pharmacia Corporation, priority 2003, published 2005).
Several values for one entry are separate records, joined by “and”; a condition that tells them apart may be missing. Equal entries are not always repeated. Structures can show the parent of a compound that is named as a salt. Where two headings read alike, the source gives them in different places. Each block holds one compound with its values, some of them ahead of it.

How the values were obtained:
[1] = target: Recombinant MAPKAPK2 (MK-2) (Homo sapiens, UniProt P49137); assay: Determination of MK-2 IC50 (phosphorylation of HSP-peptide, anion exchange resin capture assay); type: biochemical
Sequence of Recombinant MAPKAPK2 (MK-2) (P49137 whole entry, species assumed): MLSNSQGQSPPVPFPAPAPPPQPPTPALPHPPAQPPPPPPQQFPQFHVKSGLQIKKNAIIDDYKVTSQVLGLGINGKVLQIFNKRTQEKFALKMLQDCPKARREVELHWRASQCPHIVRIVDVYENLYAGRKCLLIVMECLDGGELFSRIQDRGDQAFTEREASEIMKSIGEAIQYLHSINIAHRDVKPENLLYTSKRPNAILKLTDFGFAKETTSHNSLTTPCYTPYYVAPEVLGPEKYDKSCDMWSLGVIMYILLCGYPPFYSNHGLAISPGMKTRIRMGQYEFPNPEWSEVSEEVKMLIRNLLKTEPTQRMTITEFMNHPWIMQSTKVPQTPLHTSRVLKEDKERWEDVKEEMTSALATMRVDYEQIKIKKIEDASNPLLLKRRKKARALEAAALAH

[2] = test system: TNFα release, U937 cells; assay: U937 Cell TNFα Release Assay (LPS, ELISA); type: cell-based, human; conditions: additional values are replicate IC50 experiments
Description: U937 Cell TNFα Release Assay
Differentiation of U937 to monocytic/macrophage-like cells is induced by the addition of phorbol12-myristate 13-acetate (Sigma) at final concentration of 20 ng/ml to a culture of U937 cells at ˜0.5 million cells/ml and incubated for 24 hrs. The cells are centrifuged, washed with PBS and resuspended in fresh media without PMA and incubated for 24 hrs. Cells adherent to the culture flask are harvested by scraping, centrifugation, and resuspended in fresh media to 2 million cells/ml, and 0.2 ml is aliquoted to each of 96 wells in flat-bottom plate. Cells are then incubated for an additional 24 hrs to allow for recovery. The media is removed from the cells, and 0.1 ml of fresh media is added per well. 0.05 ml of serially diluted compound or control vehicle (Media with DMSO) is added to the cells. […] Cells are incubated at 37° C. for 4 hrs. After 4 hrs incubation, supernatants are harvest and assayed by ELISA for the presence of TNFα.
Coating solution was aspirated the following day and wells were blocked with 1 mg/ml gelatin in PBS (plus 1× thimerasol) for 2 days at 4° C. Prior to using, wells were washed 3× with wash buffer (PBS with 0.05% Tween). Cultured media samples were diluted in EIA buffer (5 mg/ml bovine γ-globulin, 1 mg/ml gelatin, 1 ml/l Tween-20, 1 mg/ml thimerasol in PBS), added to wells (0.1 ml/well) in triplicate and allowed to incubate for 1.5 hr at 37° C. in a humidified chamber. […] TNF levels were quantitated from a recombinant human TNFα (R&D Systems #210-TA-010) standard curve using a quadratic parameter fit generated by SoftMaxPRO software. ELISA sensitivity was approximately 30 pg TNF/ml. IC50 values for compounds were generated using BioAssay Solver.

[3] = test system: MK-2; conditions: cited from earlier work
[4] = test system: endotoxin-induced shock; conditions: murine model of endotoxin-induced shock; cited from earlier work
[5] = test system: adjuvant arthritis; conditions: rat; cited from earlier work
[6] = test system: collagen-induced arthritis; conditions: mouse; cited from earlier work
[7] = MK-2 Avg. IC50, additional values are replicate IC50 experiments
[8] = Homo sapiens, U-937, 4 h, read-out: TNF Release Assay Avg. IC50, LPS 100 ng/ml, 4 hrs, differentiated U937 cells
[9] = additional values are replicate IC50 experiments, read-out: MK-2 Avg. IC50
[10] = Homo sapiens, U-937, 4 h, LPS 100 ng/ml, 4 hrs, differentiated U937 cells, read-out: TNF Release Assay Avg. IC50

SMILES: COCCOC(=O)C1c2[nH]c3ccc(OC)cc3c2C2CCN1C2 (centres unmarked)
IC50 [1, 7]: 4.72 µM and 4.96 µM
IC50 ([2]; read-out: TNF Release Assay Avg. IC50, LPS 100 ng/ml, 4 hrs, differentiated U937 cells, listed as 15): 3.58 µM

SMILES: COc1ccc2[nH]c3c(c2c1)C1CCN(C1)C3C(=O)OCCO (centres unmarked)
IC50 [1, 7]: 5.64 µM
IC50 [2, 8]: > 100 µM

SMILES: COc1ccc2[nH]c3c(c2c1)C1CCN(C1)C3C(=O)OCCSC (centres unmarked)
IC50 [1, 7]: 4.4 µM

SMILES: CSc1ccc2[nH]c3c(c2c1)C1CCN(C1)C3C(=O)O (centres unmarked) [No. 4, 7-(methylthio)-3,4,5,10-tetrahydro-1H-2,5-methanoazepino[3,4-b]indole-1-carboxylic acid]
IC50 ([2]; LPS 100 ng/ml, 4 hrs, differentiated U937 cells, read-out: TNF Release Assay Avg. IC50): > 100 µM

SMILES: COc1ccc2[nH]c3c(c2c1)C1CCN(C1)C3C(=O)OCC1CCCCC1 (centres unmarked) [No. 15, hydrochloride]
IC50 [1, 9]: 38.5 µM

SMILES: C[S+]([O-])c1ccc(-c2nc(-c3ccncc3)c(-c3ccc(F)cc3)[nH]2)cc1 (centres unmarked) [SB203580]
inhibition of activation of MK-2 [3]: inhibit activation
mortality [4]: reduce mortality
development of adjuvant arthritis [5]: inhibit the development
development of collagen-induced arthritis [6]: inhibit the development

SMILES: COc1ccc2[nH]c3c(c2c1)C1CCN(C1)C3C(=O)OC(C)(C)C (centres unmarked) [compound 41, tert-butyl 7-methoxy-3,4,5,10-tetrahydro-1H-2,5-methanoazepino[3,4-b]indole-1-carboxylate]
IC50 [1, 9]: 112 µM
IC50 [2, 8]: > 100 µM

SMILES: COc1ccc2[nH]c3c(c2c1)C1CCN(C1)C3C(=O)OC12CC3CC(CC(C3)C1)C2 (centres unmarked) [compound 42]
IC50 [2, 8]: 42.4 µM

SMILES: CNC(=O)C1c2[nH]c3ccc(OC)cc3c2C2CCN1C2 (centres unmarked) [compound 44, 7-methoxy-N-methyl-3,4,5,10-tetrahydro-1H-2,5-methanoazepino[3,4-b]indole-1-carboxamide]
IC50 [2, 10]: > 100 µM

SMILES: COc1ccc2[nH]c3c(c2c1)C1CCN(C1)C3C(=O)NCc1ccccc1 (centres unmarked) [compound 45, N-benzyl-7-methoxy-3,4,5,10-tetrahydro-1H-2,5-methanoazepino[3,4-b]indole-1-carboxamide hydrochloride]
IC50 [1, 7]: > 200 µM

SMILES: COc1ccc2[nH]c3c(c2c1)C1CCN(C1)C3C(=O)N(C)C (centres unmarked) [compound 46, 7-methoxy-N,N-dimethyl-3,4,5,10-tetrahydro-1H-2,5-methanoazepino[3,4-b]indole-1-carboxamide]
IC50 [1, 7]: > 200 µM
IC50 [2, 10]: > 100 µM

IC50 [1, 9]: > 200 µM
IC50 [2, 10]: 76.7 µM
SMILES: O=C(OCc1ccccc1)C1c2[nH]c3ccc(OCc4ccccc4)cc3c2C2CCN1C2 (centres unmarked) [compound 47, benzyl 7-(benzyloxy)-3,4,5,10-tetrahydro-1H-2,5-methanoazepino[3,4-b]indole-1-carboxylate trifluoroacetate]

SMILES: COc1ccc2[nH]c3c(c2c1)C1CCN(C1)C3C(N)=O (centres unmarked) [compound 48, 7-methoxy-3,4,5,10-tetrahydro-1H-2,5-methanoazepino[3,4-b]indole-1-carboxamide]
IC50 [1, 7]: > 200 µM
IC50 [2, 10]: > 100 µM

SMILES: COCCNC(=O)C1c2[nH]c3ccc(OC)cc3c2C2CCN1C2 (centres unmarked) [compound 49, 7-methoxy-N-(2-methoxyethyl)-3,4,5,10-tetrahydro-1H-2,5-methanoazepino[3,4-b]indole-1-carboxamide]
IC50 [2, 10]: > 100 µM

IC50 [1, 9]: > 200 µM
SMILES: COc1ccc2[nH]c3c(c2c1)C1CCN(C1)C3c1ccc[nH]1 (centres unmarked) [compound 50, 7-methoxy-1-(1H-pyrrol-2-yl)-3,4,5,10-tetrahydro-1H-2,5-methanoazepino[3,4-b]indole trifluoroacetate]

SMILES: COc1ccc2[nH]c3c(c2c1)C1CCN(C1)C3C(=O)OC1CCCCC1 (centres unmarked) [hydrochloride]
IC50 ([2]; read-out: TNF Release Assay Avg. IC50, LPS 100 ng/ml, 4 hrs, differentiated U937 cells, listed as 38, hydrochloride): 59.1 µM

SMILES: COc1ccc2[nH]c3c(c2c1)C1CCN(C1)C3C(=O)OCC(C)(C)C (centres unmarked) [hydrochloride]
IC50 [1, 7]: 20.6 µM

SMILES: CCCCCCOC(=O)C1c2[nH]c3ccc(OC)cc3c2C2CCN1C2 (centres unmarked) [trifluoroacetate]
IC50 [1, 7]: 29.7 µM

SMILES: COCCOC(=O)C1c2[nH]c3ccc(O)cc3c2C2CCN1C2 (centres unmarked) [trifluoroacetate]
IC50 [1, 7]: 6.88 µM

SMILES: COCCOC(=O)C1c2[nH]c3ccc(OC)cc3c2C2CCN1C2 (centres unmarked) [trifluoroacetate]
IC50 [1, 7]: 6.49 µM

SMILES: COc1ccc2[nH]c3c(c2c1)C1CCN(C1)C3C(=O)N(C)OC (centres unmarked) [trifluoroacetate]
IC50 [1, 7]: 91 µM and 98.2 µM

SMILES: COc1ccc2[nH]c3c(c2c1)C1CCN(C1)C3C(=O)OC1CCCCC1 (centres unmarked) [trifluoroacetate]
IC50 [1, 7]: 45.2 µM
IC50 ([2]; read-out: TNF Release Assay Avg. IC50, LPS 100 ng/ml, 4 hrs, differentiated U937 cells, listed as 37, trifluoroacetate): 50.4 µM
